Results: patent US20260274828A1, “BROAD SPECTRUM ANTIFUNGAL KETO-ALKYL-PYRIDINIUM COMPOUNDS” (priority 2023, published 2026)
“Also recorded” adds a separate entry of the source.

How the values were obtained:
[1] = test system: medically important yeasts and molds; test: Antifungal activity, general statements; format: cell-based
Protocol: (§1) Minimum inhibitory concentrations were determined using CLSI guidelines (Beattie & Krysan, 2021; Wiederhold, 2021). All yeasts were cultured overnight in 3 mL YPD at 30° C., then washed twice in sterile PBS. Two-fold serial dilutions of each compound were prepared in RMPI+MOPS pH 7 (Gibco RPMI 1640 with L-glutamine [11875-093] and 0.165M 352 MOPS), then 1×10^3 cells were added per well. Plates were incubated at 37° C. for 24 hours (C. albicans and S. cerevisiae) or 72 hours (C. neoformans). For A. fumigatus and F. oxysporum wells were inoculated with 1.25×10^4 conidia. Plates were incubated at 37° C. for 48 hours for A. fumigatus and 72 hours for F. oxysporum. All MICs are defined as the well with complete growth inhibition as determined by visual inspection with the exception of MICs of fluconazole against C. albicans where the MIC is defined as at least 50% reduction in growth compared to the control.

red blood cells = test: Red blood cell lysis assay; format: cell-based, sheep; details: 2 h, normalized to max lysis by triton-x
Protocol: Hemolysis assays were performed with defibrinated sheep's blood (Lampire, Cat #7239001). Blood was washed three times with PBS then resuspended to about 50% hematocrit in PBS. A two-fold dilution series of the compounds in 200 μL PBS with equal DMSO concentration across the series, then red blood cells were added with a final concentration of 2% hematocrit. Cells were incubated at RT for 2 hours in a v-bottom microtiter plate, then plates were spun down and supernatant was transferred to a flat bottom microtiter plate for absorbance measurement at 570 nm. Compounds were tested in technical triplicate in at least two independent assays performed on different days.

A. fumigatus [2] = test: Planktonic MIC, CLSI guidelines; format: cell-based; details: Aspergillus fumigatus
Protocol: as §1

C. albicans [3] = test: Planktonic MIC, CLSI guidelines; format: cell-based, Candida albicans
Protocol: as §1

C. albicans [4] = test: Checkerboard assay with clinical antifungals (FICI); format: cell-based, Candida albicans; details: for MIC: Candida albicans, read-out: MICA (MIC of each drug alone)
Protocol: (§2) To determine if compounds interacted with clinically used antifungal drugs, checkerboard assays were performed and fractional inhibitory concentration indices were determined. […] The FICI for compound B and fluconazole is 8.25 due to the 8-fold increase in fluconazole concentration in the combination; however, the concentration of compound B at FIC is reduced by 4-fold relative to compound B as a single agent (Table 3).

A. fumigatus [5] = test: as above; format: cell-based, Aspergillus fumigatus; details: for MIC: Aspergillus fumigatus, read-out: MICA (MIC of each drug alone); for MIC / MICC (MIC in combination): checkerboard B x Voriconazole
Protocol: as §2

[6] = test system: A. fumigatus CEA10 hyphal cells; test: Propidium iodide staining and DIC imaging of hyphae; format: cell-based, Aspergillus fumigatus; details: 16 μg/mL, 24 hours
Source text: (§3) CLSI testing of antifungal activity of molds is based on inoculation with conidia and, therefore, measures inhibition of germination (Widerhold, 2021). For example, voriconazole is the gold standard for treatment of pulmonary infection and inhibits germination. The most important A. fumigatus infection that requires non-systemic therapy is fungal keratitis (Hoffman et al., 2022). At the time of clinical presentation, A. fumigatus is exclusively in the hyphal form. […] A. fumigatus CEA10 was incubated for 24 hours prior to exposure to a dilution series of compound B or C for an additional 24 hours. The metabolic activity of the cultures was determined using resazurin as previously described (Mao et al., 2020). […] To further characterize the mode of action of the KAPs against A. fumigatus hyphae, CEA10 was treated with compound B for 24 hours and then the cells were stained with propidium iodide, a dye that is excluded from cells with intact membranes (FIG. 2D).

HepG2 cells = test: Mammalian cell culture toxicity assay (LDH release and XTT); format: cell-based, human
Protocol: HepG2 cells (ATCC, #) were maintained and cultured in HepG2 media (DMEM (Gibco, Cat #11965-092) with 5% FBS, 20 mM Glutamine, and Penicillin/Streptomycin) at 37° C. with 5% CO2. Cells were seeded in 96-well plates at a density of 1.25×10^4 cells/well and incubated overnight at 37° C. with 5% CO2, then media was removed and replaced with media containing a two-fold dilution series of compounds with equal DMSO concentrations across all wells including no compound controls. Cells were incubated for an additional 24 hours. Supernatant was removed and used to quantify lactate dehydrogenase release using the CyQuant LDH assay kit (Invitrogen, Cat #C20300) following the manufacturer's directions. LDH signal was normalized to a max lysis control. The remaining cells were then used to quantify cellular metabolism by XTT. Briefly, cells were washed, then 0.9 mg/mL XTT (Sigma, CAT #X4626)+320 μg/mL PMS ([…] methosulfate; Sigma, Cat #P9625) in HepG2 media was added to each well. Plates were incubated at 37° C., with 5% CO2 for 2 hours, then absorbance was measured at 490 nm.

P. aeruginosa = test: Antibacterial MIC; format: cell-based, Pseudomonas aeruginosa
C. albicans [7] = test: Planktonic MIC, CLSI guidelines; format: cell-based, Candida albicans; details: data not shown
[8] = test system: A. fumigatus CEA10 hyphae; test: Metabolic activity of hyphae/biofilms (resazurin); format: cell-based; details: Aspergillus fumigatus, CEA10HYPHAE, 24 h pre-incubation, 24 h exposure, read-out: hyphal metabolic activity IC50
Source text: as §3

C. auris [9] = test: Planktonic MIC, CLSI guidelines; format: cell-based, Candida auris; details: Candidozyma auris
Protocol: as §1

S. aureus = test: Antibacterial MIC; format: cell-based; details: Staphylococcus aureus; strain Newman
F. oxysporum = test: Planktonic MIC, CLSI guidelines; format: cell-based; details: Fusarium oxysporum; strain DUMC Fo
Protocol: as §1

C. glabrata = test: Planktonic MIC, CLSI guidelines; format: cell-based; details: Nakaseomyces glabratus; strain KK2001
Protocol: as §1

C. neoformans = test: Planktonic MIC, CLSI guidelines; format: cell-based; details: Cryptococcus neoformans
Protocol: as §1

C. auris [10] = details: cited from earlier work
human cell lines = details: Kim et al., 2021; cited from earlier work
C. albicans [11] = details: Yamashita et al., 2019; cited from earlier work
[12] = A. fumigatus CEA10, Table 4, read-out: A. fumigatus MIC
[13] = Candida albicans, C. albicans SC5314, Table 4, read-out: C. albicans MIC
[14] = checkerboard B x Amphotericin B

## COc1ccc(F)c(-c2ccc(C(=O)C[n+]3ccc(N)cc3)cc2)c1.[Br-] [Compound C]
[1]
  antifungal activity: inactive; also recorded: no antifungal activity
Red blood cells
  red blood cell lysis LD50: > 1000 µg/mL

## Cc1cc[n+](CC(=O)c2ccc(-c3ccc(Oc4ccccc4)cc3)cc2)cc1.[Cl-] [KAP-3]
A. fumigatus [2]; [12]
  MIC: 8 µg/mL
C. albicans [3]; [13]
  MIC: 4 µg/mL

## Nc1cc[n+](CC(=O)c2ccc(Oc3ccccc3)cc2)cc1.[Cl-] [KAP-5]
A. fumigatus [2]; [12]
  MIC: > 64 µg/mL

## C[C@@H]1[C@H](O)[C@@H](C)/C=C/C=C/C=C/C=C/C=C/C=C/C=C/[C@H](O[C@@H]2O[C@H](C)[C@@H](O)[C@H](N)[C@@H]2O)C[C@@H]2O[C@](O)(C[C@@H](O)C[C@@H](O)[C@H](O)CC[C@@H](O)C[C@@H](O)CC(=O)O[C@H]1C)C[C@H](O)[C@H]2C(=O)O [Amphotericin B, reference compound]
C. albicans [4]; [14]
  MICA (MIC of each drug alone): 0.5 µg/mL
  MICC (MIC in combination): 0.25 µg/mL

## Nc1cc[n+](CC(=O)c2ccc3c(c2)OC(c2cccc(C(F)(F)F)c2)(c2cccc(C(F)(F)F)c2)O3)cc1.[Cl-] [KAP-1]
A. fumigatus [2]; [12]
  MIC: 16 µg/mL
C. albicans [3]; [13]
  MIC: 1 µg/mL

## Cc1ccc(-c2ccc(C(=O)C[n+]3ccc(N)cc3)cc2)c2ccccc12.[Cl-] [KAP-2]
A. fumigatus [2]; [12]
  MIC: 16 µg/mL
C. albicans [3]; [13]
  MIC: 8 µg/mL

## Cc1cc[n+](CC(=O)c2ccc(-c3ccc(Oc4ccccc4)cc3)cc2)cc1.[Br-] [Compound B]
C. albicans [4]; B with Amphotericin B
  FICI: 0.75
C. albicans [4]; B with Fluconazole
  FICI: 8.25
C. albicans [4]; [14]
  MIC: 4 µg/mL
  MICC (MIC in combination): 1 µg/mL
C. albicans [4]; checkerboard B x Fluconazole
  MIC: 16 µg/mL
  MICC (MIC in combination): 4 µg/mL
C. albicans [4]; combination with fluconazole
  reduction of concentration at FIC relative to single agent: 4 fold
C. albicans [4]; with amphotericin B
  interaction with clinical antifungal: indifferent (2 < FICI < 4 = indifferent)
C. albicans [4]; with caspofungin
  interaction with clinical antifungal: indifferent (2 < FICI < 4 = indifferent)
C. albicans [4]; with fluconazole
  interaction with clinical antifungal: antagonistic
A. fumigatus [5]
  MIC: 16 µg/mL
  MICC (MIC in combination): 2 µg/mL
A. fumigatus [5]; B with Voriconazole
  FICI: 0.625
A. fumigatus [5]; with voriconazole
  interaction with clinical antifungal: indifferent (2 < FICI < 4 = indifferent)
[6]
  DIC images of hyphae: loss of refractivity and fragmentation of hyphae
  propidium iodide staining: uniform uptake of dye
HepG2 cells; HepG2, LDH release, 24 h
  LD50, cell lysis assay: 9 µg/mL
HepG2 cells; HepG2, XTT, 24 h
  LD50, metabolic activity assay: 20 µg/mL
HepG2 cells; readout not given
  LD50, toxicity against human cell lines: 20 µg/mL
P. aeruginosa; P. aeruginosa
  activity compared to cetylpyridinium chloride: more active
P. aeruginosa; Pseudomonas aeruginosa, strain PAO1
  MIC: 32 µg/mL
C. albicans [7]
  change in MIC with glycerol instead of glucose as carbon source: not observed
[8]
  IC50: 3.9 µg/mL
C. auris [9]; strain 0381, drug susceptible
  MIC: 16 µg/mL
C. auris [9]; strain 0390, multi-drug resistant
  MIC: 4 µg/mL
S. aureus
  MIC: 16 µg/mL
A. fumigatus [2]; strain AF293, read-out: MIC
  MIC: 1 µg/mL
A. fumigatus [2]; strain CEA10, read-out: MIC
  MIC: 8 µg/mL
A. fumigatus [2]; strain Cas^R, read-out: MIC
  MIC: 16 µg/mL
A. fumigatus [2]; strain SPF98, read-out: MIC
  MIC: 16 µg/mL
F. oxysporum
  MIC: 16 µg/mL
C. glabrata
  MIC: 1 µg/mL
C. neoformans; strain DUMC 118.00
  MIC: 2 µg/mL
C. neoformans; strain DUMC 122.01
  MIC: 4 µg/mL
C. neoformans; strain H99
  MIC: 2 µg/mL
Red blood cells
  red blood cell lysis LD50: 78.6 µg/mL
C. albicans [3]; Candida albicans, strain SC5314, read-out: MIC
  MIC: 8 µg/mL
C. albicans [3]; Candida albicans, strain TWO #15, fluconazole-resistant, read-out: MIC
  MIC: 4 µg/mL
C. albicans [3]; strain TWO #17, fluconazole-resistant
  MIC: 4 µg/mL

## N=C(NCCCCCCNC(=N)NC(=N)Nc1ccc(Cl)cc1)NC(=N)Nc1ccc(Cl)cc1.O=C(O)[C@H](O)[C@@H](O)[C@H](O)[C@H](O)CO.O=C(O)[C@H](O)[C@@H](O)[C@H](O)[C@H](O)CO [chlorhexidine gluconate]
C. auris [10]; comparison stated in Example 2
  activity against C. auris colonization of skin: minimally active

## OC(Cn1cncn1)(Cn1cncn1)c1ccc(F)cc1F [Fluconazole, reference compound]
C. albicans [4]; checkerboard B x Fluconazole
  MIC: 0.125 µg/mL
  MICC (MIC in combination): 1 µg/mL
C. albicans [4]; combination with compound B
  increase in fluconazole concentration in the combination: 8 fold

## CCCCCCCCCCCCCCCC[n+]1ccccc1 [cetylpyridinium chloride]
Human cell lines
  LD50, toxicity against human cell lines: 6 µg/mL

## C[C@@H](c1ncncc1F)[C@](O)(Cn1cncn1)c1ccc(F)cc1F [Voriconazole, reference compound]
A. fumigatus [5]
  MIC: 0.25 µg/mL
  MICC (MIC in combination): 0.125 µg/mL

## [H]/N=C(\N/C(=N/[H])NCCCCCCNC(=N)NC(=N)Nc1ccc(Cl)cc1)Nc1ccc(Cl)cc1 [2% chlorhexidine, chlorhexidine]
C. auris [10]; 72 hour experiment, three daily applications, Johnson et al., 2021
  reduction of fungal burden of colonized porcine skin: about 0.5 log10

## Cc1cc[n+](CC(=O)c2ccc(-c3ccc(Oc4ccc(F)cc4)cc3)cc2)cc1.[Cl-] [KAP-4]
A. fumigatus [2]; [12]
  MIC: 16 µg/mL
C. albicans [3]; [13]
  MIC: 4 µg/mL

## N=C(N)c1ccc(OCCCC2CCN(CCCOc3ccc(C(=N)N)cc3)CC2)cc1 [Compound T-2307]
C. albicans [11]
  MIC on 2% glycerol compared to 2% dextrose: decreases dramatically
